Assay results taken from publication PMC6022226, “Novel coumarin-6-sulfonamides as apoptotic anti-proliferative agents: synthesis, in vitro biological evaluation, and QSAR studies” (Journal of Enzyme Inhibition and Medicinal Chemistry, 2018).
Where two headings read alike, the source gives them in different places.

Assays:
MCF-7 breast cancer = assay: In vitro anti-proliferative activity, SRB assay, MCF-7; type: cell-based, human; conditions: mean ± SE of three experiments
Protocol: (§1) HepG2 liver cancer, MCF-7 breast cancer and Caco-2 cancer cell lines were obtained from the National Cancer Institute (Cairo, Egypt). Caco-2 cells were grown in DMEM while HepG2 and MCF-7 were grown in RPMI-1640. Media were supplemented with 10% heat-inactivated FBS, 50 units/mL of penicillin and 50 µg/mL of streptomycin and maintained at 37 °C in a humidified atmosphere containing 5% CO2. The cells were maintained as a “monolayer culture” by serial subculturing. Cytotoxicity was determined using the sulforhodamine B (SRB) method as previously described by Skehan et al.[50] Exponentially growing cells were collected using 0.25% trypsin-EDTA and seeded in 96-well plates at 1000–2000 cells/well in supplemented DMEM medium. After 24 h, cells were incubated for 72 h with various concentrations of the tested compounds as well as doxorubicin as the reference compound. Following 72 h of treatment, the cells were fixed with 10% trichloroacetic acid for 1 h at 4 °C. Wells were stained for 10 min at room temperature with 0.4% SRB dissolved in 1% acetic acid. The plates were air dried for 24 h, and the dye was solubilized with Tris–HCl for 5 min on a shaker at 1600 rpm. The optical density (OD) of each well was measured spectrophotometrically at 564 nm with an ELISA microplate reader (ChroMate-4300, FL, USA). The IC50 values were calculated according to the equation for Boltzmann sigmoidal concentrationeresponse curve using the nonlinear regression models (GraphPad, Prism Version 5). The results reported are means of at least three separate experiments. Significant differences were analyzed by one-way ANOVA wherein the differences were considered to be significant at p < .05.
(§2) All the newly synthesized target coumarin sulfonamides were evaluated for their in vitro anti-proliferative activity against three human tumor cancer cell lines, HepG2 hepatocellular carcinoma, MCF-7 breast cancer, and Caco-2 colon cancer, using SRB colorimetric assay as described by Skehan et al.^50 Doxorubicin was involved in the experiments as a reference cytotoxic compound.

[1] = system: HepG2 hepatocellular carcinoma; assay: In vitro anti-proliferative activity, SRB assay, HepG2; type: cell-based, human
Protocol: as §1, §2

Caco-2 colon cancer = assay: In vitro anti-proliferative activity, SRB assay, Caco-2; type: cell-based, human
Protocol: as §1, §2

[2] = system: non-tumorigenic human normal lung fibroblast cell line (WI-38); assay: In vitro cytotoxicity towards normal WI-38 cells; type: cell-based
Bax = assay: ELISA immunoassay, Bax expression level in HepG2 cells; type: cell-based, human; conditions: HepG2 cells treated at IC50 concentration
From the text: (§3) The levels of the apoptotic markers (Bax, caspase-3) and the anti-apoptotic marker (Bcl-2) were examined using ELISA colorimetric kits per the manufacturer’s protocol and referring to reported instructions[51] ^, [52].
(§4) The Bcl-2 proteins family is mainly responsible for synchronizing the mitochondrial apoptotic pathway, and classified into two major classes: anti-apoptotic proteins such as Bcl-2 protein and the counteracting pro-apoptotic proteins including Bax protein. In this study, we examined the impact of coumarins 13a and 15a on the level of the anti-apoptotic Bcl2 and the level of the pro-apoptotic Bax (Table 3).

Bcl-2 = assay: ELISA immunoassay, Bcl-2 expression level in HepG2 cells; type: cell-based, human; conditions: HepG2 cells treated at IC50 concentration
From the text: as §3, §4

caspase-3 = assay: ELISA immunoassay, active caspase-3 level in HepG2 cells; type: cell-based, human; conditions: HepG2 cells treated at IC50 concentration
From the text: as §3
As a key executioner protease, caspase-3 is activated by upstream initiator caspases as caspase-9.

[3] = Homo sapiens, MCF7, 72 h incubation
[4] = Homo sapiens, HepG2, 72 h, 72 h incubation, SRB, mean ± SE of three experiments, read-out: IC50 HepG2
[5] = Homo sapiens, HepG2, training set, Table 4, -log IC50 (IC50 in µM), read-out: HepG2 Experimental activity (pIC50) (converted)
[6] = Homo sapiens, Caco-2, 72 h incubation, SRB, mean ± SE of three experiments, read-out: IC50 Caco-2
[7] = Homo sapiens, Caco-2, training set, Table 4, -log IC50 (IC50 in µM), read-out: Caco-2 Experimental activity (pIC50) (converted)
[8] = 72 h incubation, read-out: IC50 MCF7
[9] = 72 h incubation, SRB, mean ± SE of three experiments, read-out: IC50 HepG2
[10] = 72 h incubation, SRB, mean ± SE of three experiments, read-out: IC50 Caco-2
[11] = training set, Table 4, -log IC50 (IC50 in µM)
[12] = Homo sapiens, HepG2, external validation test compounds, Table 5, -log IC50 (IC50 in µM), read-out: HepG2 Experimental activity (pIC50) (converted)

Row | IC50 (MCF-7 breast cancer; [3]) [µM] | IC50 [1, 4] [µM] | IC50 [1, 5] [µM] | IC50 (Caco-2 colon cancer; [6]) [µM] | IC50 (Caco-2 colon cancer; [7]) [µM] | melting point [°C] | Compound | further results
1 | 16.3 ± 1.48 | 7.57 ± 0.66 |  | 46.1 ± 3.17 | 46.1 | 193 to 194 | CC(=NNC1=NC(=O)C(CC(=O)O)S1)c1ccc(NS(=O)(=O)c2ccc3oc(=O)ccc3c2)cc1 (stereo not shown) [Compound 15c, 2–(4-Oxo-2–(2-(1–(4-(2-oxo-2H-chromene-6-sulfonamido)phenyl)ethylidene) hydrazinyl)-4,5-dihydrothiazol-5-yl)acetic acid] | IC50 [1, 12]: 7.57 µM
2 | 50.7 ± 4.61 | 35.5 ± 2.93 | 35.5 | 193 ± 15.3 | 193 | 266 to 268 | NS(=O)(=O)c1ccc(NS(=O)(=O)c2ccc3oc(=O)ccc3c2)cc1 [Compound 4a, 2-Oxo-N-(4-sulfamoylphenyl)-2H-chromene-6-sulfonamide] | 
3 | > 200 | 11.8 ± 1.16 | 11.8 | 96.6 ± 5.37 | 96.6 | 201 to 202 | CC(=NNc1nc(-c2cc3ccccc3oc2=O)cs1)c1ccc(NS(=O)(=O)c2ccc3oc(=O)ccc3c2)cc1 [Compound 13b, 2-Oxo-N-(4–(1-(2–(4-(2-oxo-2H-chromen-3-yl)thiazol-2-yl)hydrazono)ethyl)phenyl)-2H-chromene-6-sulfonamide] | 
4 | > 200 | > 200 |  | 16.1 ± 1.28 | 16.1 | 258 to 259 | CC(=NNc1nc(C)c(N=Nc2ccc(C)cc2)s1)c1ccc(NS(=O)(=O)c2ccc3oc(=O)ccc3c2)cc1 [Compound 11d, N-(4–(1-(2–(4-methyl-5-(p-tolyldiazenyl)thiazol-2yl)hydrazono)ethyl)phenyl)-2-oxo-2H-chromene-6-sulfonamide] | 
5 | 14.3 ± 1.18 | 27 ± 2.01 | 27 | 8.53 ± 0.72 | 8.53 | 178 to 180 | CC(=NNc1ccccc1)c1ccc(NS(=O)(=O)c2ccc3oc(=O)ccc3c2)cc1 [Compound 8a, 2-Oxo-N-(4–(1-(2-phenylhydrazono)ethyl)phenyl)-2H-chromene-6-sulfonamide] | 
6 | > 200 | 163 ± 10.2 | 163 | > 200 |  | 253 to 254 | CC(=NNC(N)=S)c1ccc(NS(=O)(=O)c2ccc3oc(=O)ccc3c2)cc1 [Compound 9, 2–(1-(4–(2-Oxo-2H-chromene-6-sulfonamido)phenyl)ethylidene)hydrazine carbothioamide] | 
7 | > 200 | 25.6 ± 1.36 |  | 81.5 ± 6.89 |  |  | CC(=O)c1ccc(NS(=O)(=O)c2ccc3oc(=O)ccc3c2)cc1 [Compound 6, N-(4-acetylphenyl)-2-oxo-2H-chromene-6-sulfonamide] | IC50 [1, 12]: 25.6 µM; IC50 (Caco-2 colon cancer; Homo sapiens, Caco-2, external validation test compounds, Table 5, -log IC50 (IC50 in µM), read-out: Caco-2 Experimental activity (pIC50) (converted)): 81.5 µM
8 | 13.9 ± 1.19 | > 200 |  | 10.1 ± 0.9 |  | 257 to 259 | CC(=NNc1nc(C)cs1)c1ccc(NS(=O)(=O)c2ccc3oc(=O)ccc3c2)cc1 [Compound 11a, N-(4–(1-(2–(4-methylthiazol-2-yl)hydrazono)ethyl)phenyl)-2-oxo-2H-chromene-6-sulfonamide] | 

Second part, the compound before the results:

Row | Compound | IC50 (MCF-7 breast cancer; [3]) [µM] | IC50 [1, 4] [µM] | IC50 [1, 5] [µM] | IC50 (Caco-2 colon cancer; [6]) [µM] | IC50 (Caco-2 colon cancer; [7]) [µM] | melting point [°C] | further results
9 | O=c1ccc2cc(S(=O)(=O)Nc3ccc(S(=O)(=O)Nc4ccccn4)cc3)ccc2o1 [Compound 4b, 2-Oxo-N-(4-(N-(pyridin-2-yl)sulfamoyl)phenyl)-2H-chromene-6-sulfonamide] | 22.9 ± 2.04 | 8.08 ± 0.51 | 8.08 | 66.9 ± 6.07 | 66.9 | 237 to 239 | 
10 | 2-Oxo-N-(4–(1-(2–(5-oxo-4,5-dihydrothiazol-2-yl)hydrazono)ethyl)phenyl)-2H-chromene-6-sulfonamide [Compound 15a] |  |  |  |  |  |  | IC50 (MCF-7 breast cancer; [8]): 11 ± 0.96 µM; Selectivity index ([2]; WI-38 versus HepG2): 11; IC50 ([2]; normal lung fibroblasts): 55.92 ± 0.39 µM; IC50 [1, 9]: 5.03 ± 0.39 µM; fold increased potency than doxorubicin ([1]; HepG2 IC50 ratio): 1.1 fold; HepG2 Experimental activity (pIC50) ([1]; external validation test compounds, Table 5, -log IC50 (IC50 in µM)): –0.7016; Bax expression level (Bax): 394.3 Pg/mg protein; Bax, folds of control (Bax): 14.3 folds; Bcl-2, folds of control (Bcl-2): 0.39 folds; Bcl-2 expression level (Bcl-2): 2.73 ng/mg protein; Bcl-2 level, % of control (Bcl-2): 38.6%; IC50 (Caco-2 colon cancer; [10]): 158 ± 9.39 µM; Caco-2 Experimental activity (pIC50) (Caco-2 colon cancer; [11]): −2.1997; Caspase-3 (active caspase-3 level) (caspase-3): 0.2625 ng/mg protein; Caspase-3, folds of control (caspase-3): ~5.7 folds
11 | CCOC(=O)c1sc(NN=C(C)c2ccc(NS(=O)(=O)c3ccc4oc(=O)ccc4c3)cc2)nc1C [Compound 11b, Ethyl 4-methyl-2–(2-(1–(4-(2-oxo-2H-chromene-6-sulfonamido)phenyl)ethylidene)hydrazinyl)thiazole-5-carboxylate] | 63.4 ± 5.69 | 54.3 ± 3.87 | 54.3 | 145 ± 8.02 | 145 | 180 to 182 | 
12 | CC(=NNc1c(Cl)cc(Cl)cc1Cl)c1ccc(NS(=O)(=O)c2ccc3oc(=O)ccc3c2)cc1 [Compound 8c, 2-Oxo-N-(4–(1-(2–(2,4,6-trichlorophenyl)hydrazono)ethyl)phenyl)-2H-chromene-6-sulfonamide] | > 200 | 29.8 ± 2.21 | 29.8 | 76.9 ± 6.59 | 76.9 | 259 to 260 | 
13 | COc1cccc2c1C(=O)c1c(O)c3c(c(O)c1C2=O)C[C@@](O)(C(=O)CO)C[C@@H]3O[C@H]1C[C@H](N)[C@H](O)[C@H](C)O1 [Doxorubicin, reference compound] | 3.18 ± 0.32 | 6.9 ± 2.05 |  | 4.1 ± 1.37 |  |  | IC50 [1, 9]: 5.43 ± 0.24 µM
14 | N-(4–(1-(2–(4-methyl-5-oxo-4,5-dihydrothiazol-2-yl)hydrazono)ethyl)phenyl)-2-oxo-2H-chromene-6-sulfonamide [Compound 15b] |  |  |  |  |  |  | IC50 (MCF-7 breast cancer; [8]): 10.6 ± 1.35 µM; IC50 [1, 9]: 25.1 ± 2.08 µM; HepG2 Experimental activity (pIC50) [1, 11]: −1.3992; IC50 (Caco-2 colon cancer; [10]): 175 ± 12.3 µM; Caco-2 Experimental activity (pIC50) (Caco-2 colon cancer; [11]): −2.2428
15 | CC(=NNc1nc(C)c(N=Nc2ccc(Cl)cc2)s1)c1ccc(NS(=O)(=O)c2ccc3oc(=O)ccc3c2)cc1 [Compound 11c, N-(4–(1-(2–(5-((4-chlorophenyl)diazenyl)-4-methylthiazol-2-yl)hydrazono)ethyl)phenyl)-2-oxo-2H-chromene-6-sulfonamide] | 34.7 ± 2.94 | 72.5 ± 6.33 | 72.5 | 108 ± 11.4 | 108 | 250 to 252 | 
16 | CC(=NNc1ccc([N+](=O)[O-])cc1[N+](=O)[O-])c1ccc(NS(=O)(=O)c2ccc3oc(=O)ccc3c2)cc1 [Compound 8b, N-(4–(1-(2–(2,4-dinitrophenyl)hydrazono)ethyl)phenyl)-2-oxo-2H-chromene-6-sulfonamide] | 126 ± 10.9 |  | 11.8 | 89.6 ± 7.26 | 89.6 | 269 to 270 | IC50 ([1]; Homo sapiens, HepG2, 72 h incubation, SRB, mean ± SE of three experiments, read-out: IC50 HepG2): 11.8 ± 1.34 µM
17 | CC(=NNS(=O)(=O)c1ccc(C)cc1)c1ccc(NS(=O)(=O)c2ccc3oc(=O)ccc3c2)cc1 [Compound 8d, 2-Oxo-N-(4–(1-(2-tosylhydrazono)ethyl)phenyl)-2H-chromene-6-sulfonamide] | > 200 | 89.9 ± 7.63 |  | 16 ± 1.32 | 16 | 163 to 165 | IC50 [1, 12]: 89.9 µM
